Measurements from patent US9193731B2, “Antimicrobial compounds and methods of making and using the same” (Melinta Therapeutics, Inc., priority 2009, dated 2015).

Tested on: Escherichia coli strain ATCC25922
Test: standard microdilution assay to determine minimum inhibitory concentrations (MICs)
Assay type: cell-based
Settings: for MIC: Escherichia coli, ATCC25922, Escherichia coli strain ATCC25922, microdilution, read-out: E. coli ATCC25922 MIC; for E. coli ATCC25922 MIC: Escherichia coli strain ATCC25922, microdilution
How it was run: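 E. coli strain ATCC25922 tested per CLSI microdilution methodology (about 100 microliters per well) to find minimum inhibitory concentrations. Activity scored categorically at a 16 micrograms/ml threshold.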

SMILES | MIC [µg/mL] | E. coli ATCC25922 MIC
N=C(N)NCCCNCc1ccc(-n2cc3cc(-c4cccc(S(=O)(=O)NC5CCNCC5)c4)[nH]c3nc2=O)cc1 [Compound 836] | < 16 | 
CCn1cc(CCCN(C2CCNCC2)S(=O)(=O)c2ccc(-c3cc4cn(-c5ccc(CNCCCNC(=N)N)cc5)c(=O)nc4[nH]3)cc2)cn1 [Compound 837] |  | + (a “+” indicates that the compound has an MIC value of 16 micrograms/ml or less)
N=C(N)NCCCNCc1ccc(-n2cc3cc(-c4ccc(S(=O)(=O)N(CCCc5ccncc5)C5CCNCC5)cc4)[nH]c3nc2=O)cc1 [Compound 838] |  | + (a “+” indicates that the compound has an MIC value of 16 micrograms/ml or less)
N=C(N)NCCCNCc1ccc(-n2cc3cc(-c4ccc(S(=O)(=O)N(CCCN5CCCCC5)C5CCNCC5)cc4)[nH]c3nc2=O)cc1 [Compound 839] |  | + (a “+” indicates that the compound has an MIC value of 16 micrograms/ml or less)
N=C(N)NCCCNCc1ccc(-n2cc3cc(-c4ccc(S(=O)(=O)N(CCCC5CCCC5)C5CCNCC5)cc4)[nH]c3nc2=O)cc1 [Compound 840] |  | + (a “+” indicates that the compound has an MIC value of 16 micrograms/ml or less)
Cn1c(CCCN(C2CCNCC2)S(=O)(=O)c2ccc(-c3cc4cn(-c5ccc(CNCCCNC(=N)N)cc5)c(=O)nc4[nH]3)cc2)nc2ccccc21 [Compound 841] |  | + (a “+” indicates that the compound has an MIC value of 16 micrograms/ml or less)
N#CCCCN(C1CCNCC1)S(=O)(=O)c1ccc(-c2cc3cn(-c4ccc(CNCCCNC(=N)N)cc4)c(=O)nc3[nH]2)cc1 [Compound 842] |  | + (a “+” indicates that the compound has an MIC value of 16 micrograms/ml or less)
N=C(N)NCCCNCc1ccc(-n2cc3cc(-c4ccc(S(=O)(=O)N(CCCC(N)=O)C5CCNCC5)cc4)[nH]c3nc2=O)cc1 [Compound 843] |  | + (a “+” indicates that the compound has an MIC value of 16 micrograms/ml or less)
NCCCNCc1ccc(-n2cc3cc(-c4ccc(S(=O)(=O)N(CC5COCCO5)C5CCCNC5)cc4)[nH]c3nc2=O)cc1 (stereo not shown) [Compound 846] |  | + (a “+” indicates that the compound has an MIC value of 16 micrograms/ml or less)
NCCCCOc1ccc(-c2cn3cc(-c4ccc(C(=O)N5CCNCC5)cc4)[nH]c3nc2=O)cc1 [Compound 847] |  | − (a “−” indicates that the compound has an MIC value greater than 16 micrograms/ml)
N=C(N)NCCCCOc1ccc(-c2cn3cc(-c4ccc(C(=O)NC5CCN(C(=N)N)CC5)cc4)[nH]c3nc2=O)cc1 [Compound 848] |  | + (a “+” indicates that the compound has an MIC value of 16 micrograms/ml or less)
N=C(N)NCCCNCc1ccc(-n2cc3cc(-c4ccc(S(=O)(=O)N(CC5COCCO5)C5CCCNC5)cc4)[nH]c3nc2=O)cc1 (stereo not shown) [Compound 851] |  | + (a “+” indicates that the compound has an MIC value of 16 micrograms/ml or less)
NCCCNCc1ccc(-n2cc3cc(-c4ccc(S(=O)(=O)NC5CCNCC5)cc4)[nH]c3nc2=O)cc1 [Compound 852] | < 16 | 
CC1CN(S(=O)(=O)c2ccc(-c3cc4cn(-c5ccc(CNCCCN)cc5)c(=O)nc4[nH]3)cc2)CC(C)N1 (stereo not shown) [Compound 853] |  | + (a “+” indicates that the compound has an MIC value of 16 micrograms/ml or less)
N=C(N)NCCCNCc1ccc(-n2cc3cc(-c4ccc(S(=O)(=O)N(CCC(=O)Nc5ccc([N+](=O)[O-])cc5)C5CCNCC5)cc4)[nH]c3nc2=O)cc1 [Compound 854] |  | + (a “+” indicates that the compound has an MIC value of 16 micrograms/ml or less)
N=C(N)NCCCNCc1ccc(-n2cc3cc(-c4ccc(S(=O)(=O)N(CCCN5CCS(=O)(=O)CC5)C5CCNCC5)cc4)[nH]c3nc2=O)cc1 [Compound 855] |  | + (a “+” indicates that the compound has an MIC value of 16 micrograms/ml or less)
N=C(N)NCCCNCc1ccc(-n2cc3cc(-c4ccc(S(=O)(=O)N(CCCn5cnnc5)C5CCNCC5)cc4)[nH]c3nc2=O)cc1 [Compound 856] |  | + (a “+” indicates that the compound has an MIC value of 16 micrograms/ml or less)
N=C(N)NCCCNCc1ccc(-n2cc3cc(-c4ccc(S(=O)(=O)N(CC5CC5(F)F)C5CCNCC5)cc4)[nH]c3nc2=O)cc1 (stereo not shown) [Compound 857] |  | + (a “+” indicates that the compound has an MIC value of 16 micrograms/ml or less)
NCCCNCc1ccc(-n2cc3cc(-c4cc(C(=O)N5CCN(CCO)CC5)cc(N5CCNCC5)c4)[nH]c3nc2=O)cc1 [Compound 860] |  | − (a “−” indicates that the compound has an MIC value greater than 16 micrograms/ml)
N=C(N)NCCCNCc1ccc(-n2cc3cc(-c4cc(C(=O)N5CCN(CCO)CC5)cc(N5CCNCC5)c4)[nH]c3nc2=O)cc1 [Compound 861] |  | − (a “−” indicates that the compound has an MIC value greater than 16 micrograms/ml)
N=C(N)NCCCNCc1ccc(-n2cc3cc(-c4ccc(S(=O)(=O)N(CCCc5cnc6ncnn6c5)C5CCNCC5)cc4)[nH]c3nc2=O)cc1 [Compound 862] |  | + (a “+” indicates that the compound has an MIC value of 16 micrograms/ml or less)
N=C(N)NCCCNCc1ccc(-n2cc3cc(-c4ccc(S(=O)(=O)NC5CCOCC5)cc4)[nH]c3nc2=O)cc1 [Compound 864] |  | − (a “−” indicates that the compound has an MIC value greater than 16 micrograms/ml)

SMILES | MIC [µg/mL] | E. coli ATCC25922 MIC
N=C(N)NCCCNCc1ccc(-n2cc3cc(-c4ccc(S(=O)(=O)N(CC5CC5c5ccncc5)C5CCNCC5)cc4)[nH]c3nc2=O)cc1 (stereo not shown) [Compound 866] |  | + (a “+” indicates that the compound has an MIC value of 16 micrograms/ml or less)
NCCCNCc1ccc(-n2cc3cc(-c4ccc(C[C@H](N)CO)cc4)[nH]c3nc2=O)cc1 [Compound 867] | < 16 | 
N=C(N)NCCCNCc1ccc(-n2cc3cc(-c4ccc(S(=O)(=O)NC5CCNCC5)cc4)[nH]c3nc2=O)cc1 [Compound 871] |  | + (a “+” indicates that the compound has an MIC value of 16 micrograms/ml or less)
CC1CN(S(=O)(=O)c2ccc(-c3cc4cn(-c5ccc(CNCCCNC(=N)N)cc5)c(=O)nc4[nH]3)cc2)CC(C)N1 (stereo not shown) [Compound 872] |  | + (a “+” indicates that the compound has an MIC value of 16 micrograms/ml or less)
NCCCNCCCCCn1cc2cc(-c3ccc(S(=O)(=O)NC4CCNCC4)cc3)[nH]c2nc1=O [Compound 873] |  | + (a “+” indicates that the compound has an MIC value of 16 micrograms/ml or less)
NCCCNCc1ccc(-n2cc3cc(-c4cc(C(=O)N5CCS(=O)(=O)CC5)cc(N5CCNCC5)c4)[nH]c3nc2=O)cc1 [Compound 874] |  | − (a “−” indicates that the compound has an MIC value greater than 16 micrograms/ml)
N=C(N)NCCCNCc1ccc(-n2cc3cc(-c4cc(C(=O)N5CCS(=O)(=O)CC5)cc(N5CCNCC5)c4)[nH]c3nc2=O)cc1 [Compound 875] |  | + (a “+” indicates that the compound has an MIC value of 16 micrograms/ml or less)
N=C(N)NCCCNCc1ccc(-n2cc3cc(-c4ccc(S(=O)(=O)N(Cc5ccccc5SC(F)(F)F)C5CCOCC5)cc4)[nH]c3nc2=O)cc1 [Compound 876] |  | − (a “−” indicates that the compound has an MIC value greater than 16 micrograms/ml)
N=C(N)NCCCNCc1ccc(-n2cc3cc(-c4ccc(S(=O)(=O)N(CC5COc6ccccc6O5)C5CCOCC5)cc4)[nH]c3nc2=O)cc1 (stereo not shown) [Compound 877] |  | − (a “−” indicates that the compound has an MIC value greater than 16 micrograms/ml)
CCOC(=O)C1(CN(C2CCNCC2)S(=O)(=O)c2ccc(-c3cc4cn(-c5ccc(CNCCCNC(=N)N)cc5)c(=O)nc4[nH]3)cc2)CC1 [Compound 878] |  | + (a “+” indicates that the compound has an MIC value of 16 micrograms/ml or less)
N=C(N)NCCCNCc1ccc(-n2cc3cc(-c4ccc(S(=O)(=O)N(Cc5cc(OC(F)(F)F)ccc5F)C5CCOCC5)cc4)[nH]c3nc2=O)cc1 [Compound 879] |  | + (a “+” indicates that the compound has an MIC value of 16 micrograms/ml or less)
N=C(N)NCCCNCc1ccc(-n2cc3cc(-c4ccc(S(=O)(=O)N(CCOc5ccc(F)cc5)C5CCOCC5)cc4)[nH]c3nc2=O)cc1 [Compound 880] |  | − (a “−” indicates that the compound has an MIC value greater than 16 micrograms/ml)
NCCCNCc1ccc(-n2cc3cc(CCS(=O)(=O)NC4CCNCC4)[nH]c3nc2=O)cc1 [Compound 881] | < 16 | 
N=C(N)NCCCCCN1CCN(c2cn3cc(-c4ccc(Br)cc4)[nH]c3nc2=O)CC1 [Compound 882] | > 16 | 
NCCCCCN1CCN(c2cn3cc(-c4ccc(Br)cc4)[nH]c3nc2=O)CC1 [Compound 883] | > 16 | 
CN(C)Cc1cc2cn(-c3ccc(CNCCCN)cc3)c(=O)nc2[nH]1 [Compound 884] | > 16 | 
N=C(N)NCCCCCc1ccc(-c2cn3cc(-c4ccc(Br)cc4)[nH]c3nc2=O)cc1 [Compound 885] | > 16 | 
NCCCCCc1ccc(-c2cn3cc(-c4ccc(Br)cc4)[nH]c3nc2=O)cc1 [Compound 886] | > 16 | 
N=C(N)NCCCCCn1cc2cc(-c3ccc(S(=O)(=O)NC4CCNCC4)cc3)[nH]c2nc1=O [Compound 887] | > 16 | 
NCCCNC(=O)c1ccc(-n2cc3cc(-c4ccc(S(=O)(=O)NC5CCNCC5)cc4)[nH]c3nc2=O)cc1 [Compound 892] |  | + (a “+” indicates that the compound has an MIC value of 16 micrograms/ml or less)
N=C(N)NCCCNC(=O)c1ccc(-n2cc3cc(-c4ccc(S(=O)(=O)NC5CCNCC5)cc4)[nH]c3nc2=O)cc1 [Compound 893] |  | + (a “+” indicates that the compound has an MIC value of 16 micrograms/ml or less)
